As a reminder, the mortality is the percentage killed.

Common to all, as to assay type: functional
The subject of one experiment is Aphis craccivora. The experiment is described as follows: Insecticidal activity against Aphis craccivora (cowpea aphid) apterous adults reared on broad bean seedlings followed by compound spraying at 200 ppm assessed as insect mortality measured after 4 days. Conditions: 96 h.
Experiment [1] has as its system Nilaparvata lugens. Briefly: Insecticidal activity against imidacloprid-sensitive Nilaparvata lugens (brown planthopper) fourth-instar larvae reared on compound pre-treated rice seedlings assessed as insect mortality at 200 ppm measured after 7 days.
Experiment [2] has as its system Nilaparvata lugens. The experiment is described as follows: Insecticidal activity against imidacloprid-sensitive Nilaparvata lugens (brown planthopper) fourth-instar larvae reared on compound pre-treated rice seedlings assessed as insect mortality at 10 ppm measured after 7 days.
Experiment [3] has as its system Nilaparvata lugens. The experiment is described as follows: Insecticidal activity against imidacloprid-sensitive Nilaparvata lugens (brown planthopper) fourth-instar larvae reared on compound pre-treated rice seedlings assessed as insect mortality at 100 ppm measured after 7 days.
The test system of experiment [4] is Nephotettix cincticeps. Briefly: Insecticidal activity against Nephotettix cincticeps (green rice leafhopper) fourth instar larvae reared on compound pre-treated rice seedlings assessed as insect mortality at 10 ppm measured after 7 days.
Experiment [5] has as its system Nephotettix cincticeps. The experiment is described as follows: Insecticidal activity against Nephotettix cincticeps (green rice leafhopper) fourth instar larvae reared on compound pre-treated rice seedlings assessed as insect mortality at 100 ppm measured after 7 days.

Molecules are shown by their SMILES.

For the compound `Cc1noc(-c2ccc[n+](C)c2)n1`, the mortality at 200 ppm in the experiment with Aphis craccivora and in the experiment on Nilaparvata lugens [1] was 10% each time.

`C[n+]1cccc(-c2ncno2)c1`: the mortality at 200 ppm in the experiment with Aphis craccivora was determined as 20%; in the experiment on Nilaparvata lugens [1] it was 60%.

As to `Cc1noc(-c2ccccn2)n1`, the mortality at 200 ppm turned out to be 0% with Aphis craccivora and 10% in the experiment on Nilaparvata lugens [1].

Turning to `CCCCCCCCCC[n+]1cccc(-c2nc(C)ns2)c1`, the mortality at 200 ppm was 60% with Aphis craccivora and 0% in the experiment with Nilaparvata lugens [1].

Regarding `Cc1noc(-c2ccncc2)n1`, the mortality at 200 ppm with Aphis craccivora turned out to be 0%; with Nilaparvata lugens [1], 10%.

For `Cc1noc(C2=CCCN(C)C2)n1`, the mortality at 200 ppm came out at 0% in the experiment with Aphis craccivora and 100% with Nilaparvata lugens [1]. For the same compound, the mortality at 10 ppm in the experiment on Nilaparvata lugens [2] came out at 70%; in the experiment on Nephotettix cincticeps [4] it was 50%. In addition, the mortality at 100 ppm with Nilaparvata lugens [3] and in the experiment on Nephotettix cincticeps [5] was 90% each time.

As for `CC[n+]1cccc(-c2nc(C)ns2)c1`, the mortality at 200 ppm with Aphis craccivora and in the experiment with Nilaparvata lugens [1] was 20% in each case.

As for `Cc1nsc(C2=CCCN(Cc3ccccc3)C2)n1`, the results for the mortality at 200 ppm with Aphis craccivora and with Nilaparvata lugens [1] were 10% and 100%, respectively. Moreover, the results for the mortality at 10 ppm in the experiment with Nilaparvata lugens [2] and in the experiment with Nephotettix cincticeps [4] were 10% and 0%, respectively. In addition, the mortality at 100 ppm was 100% in the experiment with Nilaparvata lugens [3] and 30% in the experiment on Nephotettix cincticeps [5].

Take `C#CCN1CCC=C(c2ncns2)C1`: the mortality at 200 ppm with Aphis craccivora amounted to 30%; in the experiment on Nilaparvata lugens [1], 100%. Moreover, the mortality at 10 ppm in the experiment with Nilaparvata lugens [2] is 30%; in the experiment on Nephotettix cincticeps [4], 20%. The mortality at 100 ppm amounted to 100% in the experiment on Nilaparvata lugens [3] and 60% in the experiment with Nephotettix cincticeps [5].

Regarding `c1cncc(-c2ncns2)c1`, the mortality at 200 ppm with Aphis craccivora and in the experiment with Nilaparvata lugens [1] was 100% in each case. Also, the mortality at 10 ppm in the experiment with Nilaparvata lugens [2] turned out to be 60%; with Nephotettix cincticeps [4], 40%. The mortality at 100 ppm was 100% in the experiment on Nilaparvata lugens [3] and 70% with Nephotettix cincticeps [5].

`Cc1noc(-c2cccnc2)n1`: the mortality at 200 ppm was 30% in the experiment on Aphis craccivora and 90% with Nilaparvata lugens [1]. The mortality at 100 ppm with Nilaparvata lugens [3] stood at 60%; with Nephotettix cincticeps [5], 100%.

For the compound `Cc1nsc(-c2ccncc2)n1`, the results for the mortality at 200 ppm in the experiment on Aphis craccivora and in the experiment on Nilaparvata lugens [1] were 40% and 100%, respectively. Also, the mortality at 10 ppm with Nilaparvata lugens [2] and in the experiment with Nephotettix cincticeps [4] was 20% throughout. Besides, the mortality at 100 ppm in the experiment with Nilaparvata lugens [3] is 100%; in the experiment with Nephotettix cincticeps [5], 40%.

As for `c1cncc(-c2ncno2)c1`, the mortality at 200 ppm with Aphis craccivora came to 20%; with Nilaparvata lugens [1] it was 50%.

`CCCCCCCCCCN1CCC=C(c2nc(C)ns2)C1`: the mortality at 200 ppm was determined as 60% in the experiment with Aphis craccivora and 30% with Nilaparvata lugens [1].

In the case of `C=CC[n+]1cccc(-c2nc(C)ns2)c1`, the mortality at 200 ppm was determined as 10% in the experiment with Aphis craccivora and 40% with Nilaparvata lugens [1].

Regarding `Cc1nsc(C2CCCN(C)C2)n1` (centres undefined), the mortality at 200 ppm in the experiment with Aphis craccivora amounted to 0%; in the experiment with Nilaparvata lugens [1], 30%.

With `C#CC[n+]1cccc(-c2nc(C)ns2)c1`, the mortality at 200 ppm in the experiment on Aphis craccivora stood at 70%; in the experiment with Nilaparvata lugens [1], 90%. The mortality at 10 ppm was found to be 40% in the experiment on Nilaparvata lugens [2] and 10% with Nephotettix cincticeps [4]. The results for the mortality at 100 ppm in the experiment with Nilaparvata lugens [3] and with Nephotettix cincticeps [5] were 80% and 50%, respectively.

With `Cc1nsc(C2=CCCN(CC(C)C)C2)n1`, the mortality at 200 ppm in the experiment on Aphis craccivora is 50%; with Nilaparvata lugens [1], 100%. The results for the mortality at 10 ppm with Nilaparvata lugens [2] and in the experiment on Nephotettix cincticeps [4] were 70% and 0%, respectively. The mortality at 100 ppm amounted to 100% with Nilaparvata lugens [3] and 10% with Nephotettix cincticeps [5].

As for `Cc1nsc(-c2ccc[n+](CC#N)c2)n1`, the results for the mortality at 200 ppm with Aphis craccivora and with Nilaparvata lugens [1] were 70% and 90%, respectively. Moreover, the results for the mortality at 10 ppm in the experiment with Nilaparvata lugens [2] and in the experiment on Nephotettix cincticeps [4] were 50% and 10%, respectively. The mortality at 100 ppm was 80% with Nilaparvata lugens [3] and 40% with Nephotettix cincticeps [5].

For `C=CCN1CCC=C(c2ncns2)C1`, the mortality at 200 ppm was found to be 40% with Aphis craccivora and 100% in the experiment with Nilaparvata lugens [1]. In addition, the mortality at 10 ppm with Nilaparvata lugens [2] was 60%; with Nephotettix cincticeps [4] it was 10%. Besides, the mortality at 100 ppm in the experiment with Nilaparvata lugens [3] was 100%; in the experiment with Nephotettix cincticeps [5], 60%.

On to `C[n+]1cccc(-c2ncns2)c1`, for which the figures for the mortality at 200 ppm with Aphis craccivora and with Nilaparvata lugens [1] were 30% and 80%, respectively.

As for `CCN1CCC=C(c2nc(C)ns2)C1`, the mortality at 200 ppm in the experiment on Aphis craccivora was found to be 40%; in the experiment with Nilaparvata lugens [1], 100%. In addition, the figures for the mortality at 10 ppm in the experiment with Nilaparvata lugens [2] and in the experiment on Nephotettix cincticeps [4] were 40% and 10%, respectively. The values for the mortality at 100 ppm in the experiment with Nilaparvata lugens [3] and in the experiment with Nephotettix cincticeps [5] were 100% and 50%, respectively.

Turning to `Cc1nsc(C2=CCCN(CC#N)C2)n1`, the figures for the mortality at 200 ppm in the experiment on Aphis craccivora and in the experiment on Nilaparvata lugens [1] were 50% and 100%, respectively. The values for the mortality at 10 ppm in the experiment on Nilaparvata lugens [2] and in the experiment on Nephotettix cincticeps [4] were 10% and 0%, respectively. Moreover, the mortality at 100 ppm was determined as 100% in the experiment with Nilaparvata lugens [3] and 50% with Nephotettix cincticeps [5].

Take `CN1CCC=C(c2ncns2)C1`: the mortality at 200 ppm in the experiment on Aphis craccivora came out at 30%; in the experiment on Nilaparvata lugens [1] it was 60%.

Turning to `Cc1nsc(-c2ccccn2)n1`, the mortality at 200 ppm with Aphis craccivora amounted to 30%; with Nilaparvata lugens [1], 40%.

`Cc1nsc(-c2ccc[n+](C)c2)n1`: the mortality at 200 ppm turned out to be 60% in the experiment on Aphis craccivora and 40% in the experiment with Nilaparvata lugens [1].

Consider `CCCC[n+]1cccc(-c2nc(C)ns2)c1`, for which the values for the mortality at 200 ppm with Aphis craccivora and in the experiment with Nilaparvata lugens [1] were 10% and 50%, respectively.

For the compound `CCCCN1CCC=C(c2nc(C)ns2)C1`, the figures for the mortality at 200 ppm in the experiment on Aphis craccivora and in the experiment with Nilaparvata lugens [1] were 30% and 100%, respectively. Further, the mortality at 10 ppm in the experiment on Nilaparvata lugens [2] was 30%; in the experiment with Nephotettix cincticeps [4], 10%. The mortality at 100 ppm in the experiment with Nilaparvata lugens [3] stood at 100%; with Nephotettix cincticeps [5], 20%.

Consider `CCC(C)[n+]1cccc(-c2nc(C)ns2)c1` (centres undefined), for which the mortality at 200 ppm in the experiment with Aphis craccivora is 20%; in the experiment on Nilaparvata lugens [1], 100%. Besides, the results for the mortality at 10 ppm in the experiment with Nilaparvata lugens [2] and in the experiment with Nephotettix cincticeps [4] were 90% and 10%, respectively. The mortality at 100 ppm in the experiment with Nilaparvata lugens [3] was 90%; with Nephotettix cincticeps [5], 50%.

Consider `Cc1nsc(-c2ccc[n+](Cc3ccccc3)c2)n1`, for which the mortality at 200 ppm worked out at 10% in the experiment with Aphis craccivora and 20% in the experiment on Nilaparvata lugens [1].

Values taken from ChEMBL document CHEMBL3046111, “Synthesis and insecticidal activity of 1,2,4-oxadiazole and 1,2,4-thiadiazole derivatives” (2011).
